Source: patent US12492173B2, “Herbicidal substituted N-tetrazolyl aryl carboxamides” (Bayer Aktiengesellschaft, priority 2019, dated 2025)

What was measured:
Type in all cases: in vivo
Cyperus esculentus = test: Post-emergence herbicidal action, CYPES; set-up: key: % herbicidal action vs untreated; 100 = plants died, 0 = like control; conditions: for Herbicidal action against CYPES: comparative experiment
Method: [table] 2. Post-Emergence Herbicidal Action Against Harmful Plants Seeds of monocotyledonous and dicotyledonous weed and crop plants are laid out in sandy loam soil in wood-fiber pots, covered with soil and cultivated in a greenhouse under good growth conditions. 2 to 3 weeks after sowing, the test plants are treated at the one-leaf stage. The compounds of the invention, formulated in the form of wettable powders (WP) or as emulsion concentrates (EC), are then sprayed onto the green parts of the plants in the form of an aqueous suspension or emulsion at a water application rate equating to 600 to 800 l/ha, with addition of 0.2% wetting agent. After the test plants have been left to stand in the greenhouse under optimal growth conditions for about 3 weeks, the action of the preparations is assessed visually in comparison to untreated controls (herbicidal action in percent (%): 100% activity=the plants have died, 0% activity=like control plants). […] The tables below illustrate, in an exemplary manner, the post-emergence herbicidal action of the compounds according to the invention, the herbicidal activity being stated in percent. In the experiments that follow, herbicidal action of numerous inventive compounds and the known compounds that are structurally closest from D1 (WO 2012/028579 A1) and D2 (WO 2018/202535 A1) were compared under the above-specified conditions by the pre-emergence and post-emergence method. The example numbers given in the tables relate to the compounds disclosed in the respective documents. In addition to the compounds disclosed in D1 and D2, the following compounds V-1 to V-14 that are encompassed by D1 or D2 but are not compounds specified therein were used in the comparative experiments: • V-1: 2-(methylsulfanyl)-3-(methylsulfinyl)-N-(1-methyl-1H-tetrazol-5-yl)-4-(trifluoromethyl)benzamide • V-2: 2-(methylsulfanyl)-3-(methylsulfonyl)-N-(1-methyl-1H-tetrazol-5-yl)-4-(trifluoromethyl)benzamide • V-3: 2,3-bis(ethylsulfanyl)-N-(1-methyl-1H-tetrazol-5-yl)-4-(trifluoromethyl)benzamide • V-4: 2-chloro-3-(ethylsulfanyl)-N-(1-methyl-1H-tetrazol-5-yl)-4-(trifluoromethyl)benzamide • V-5: 2-chloro-4-iodo-3-(methylsulfanyl)-N-(1-methyl-1H-tetrazol-5-yl)benzamide • V-6: 2-chloro-4-iodo-3-(methylsulfinyl)-N-(1-methyl-1H-tetrazol-5-yl)benzamide • V-7: 2-chloro-4-iodo-3-(methylsulfonyl)-N-(1-methyl-1H-tetrazol-5-yl)benzamide • V-8: 2-bromo-3-(methylsulfanyl)-N-(1-methyl-1H-tetrazol-5-yl)-4-(trifluoromethyl)benzamide • V-9: 2-bromo-3-(methylsulfinyl)-N-(1-methyl-1H-tetrazol-5-yl)-4-(trifluoromethyl)benzamide • V-10: 2-bromo-3-(methylsulfonyl)-N-(1-methyl-1H-tetrazol-5-yl)-4-(trifluoromethyl)benzamide • V-11: 2-bromo-3-(ethylsulfanyl)-N-(1-methyl-1H-tetrazol-5-yl)-4-(trifluoromethyl)benzamide • V-12: 2-bromo-3-(ethylsulfinyl)-N-(1-methyl-1H-tetrazol-5-yl)-4-(trifluoromethyl)benzamide • V-13: 2-bromo-3-(ethylsulfonyl)-N-(1-methyl-1-1H-tetrazol-5-yl)-4-(trifluoromethyl)benzamide • V-14: 2-cyclopropyl-3-(ethylsulfanyl)-N-(1-methyl-1H-tetrazol-5-yl)-4-(trifluoromethyl)benzamide Herbicidal Pre-Emergence Action: […]

Stellaria media = test: Pre-emergence herbicidal action, STEME; set-up: key to Herbicidal action against STEME: % activity: 100 = plants have died, 0 = like control plants; conditions: for herbicidal action STEME / herbicidal activity STEME: dosage 320 g/ha; for herbicidal activity STEME: scored visually after 3 weeks vs untreated controls (100% = plants have died)
In short: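 Seeds were covered with sandy loam soil, then received a pre-emergence surface spray of the WP- or EC-formulated compound. After 3 weeks under good greenhouse growth conditions, damage was scored visually in percent.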

Viola tricolor = test: Post-emergence herbicidal action, VIOTR; set-up: key: % herbicidal action vs untreated; 100 = plants died, 0 = like control
In short: (§1)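 After sowing into sandy loam, plants grew 2 to 3 weeks under greenhouse conditions until one leaf, then got a spray of compound as aqueous suspension or emulsion. Roughly three weeks on, activity was estimated visually against untreated pots.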

Abutilon theophrasti = test: Post-emergence herbicidal action, ABUTH; set-up: key: % herbicidal action vs untreated; 100 = plants died, 0 = like control
In short: as §1

Polygonum convolvulus = test: Post-emergence herbicidal action, POLCO; conditions: for Herbicidal action against POLCO: comparative experiment
In short: as §1

[1] = comparative experiment, post-emergence, 5 g of a.i./ha
[2] = post-emergence, 20 g of a.i./ha

| SMILES | herbicidal action STEME (Stellaria media) | herbicidal action VIOTR (Viola tricolor; Dosage 80 g/ha) | herbicidal action ABUTH (Abutilon theophrasti; Dosage 80 g/ha) | herbicidal action POLCO (Polygonum convolvulus; Dosage 80 g/ha) | also measured |
| --- | --- | --- | --- | --- | --- |
| Cc1ccc(C(=O)Nc2nnnn2C)c(Cl)c1C[S+](C)[O-] (racemic) [Example 1-288] | 90% | 100 | 90 | – | herbicidal action CYPES (Cyperus esculentus; Dosage 80 g/ha): 90 |
| CCS(=O)(=O)Cc1c(C(F)(F)F)ccc(C(=O)Nc2nnnn2C)c1C [Example 1-88] | – | 100 | 80 | 90 | – |
| Cc1c(C(=O)Nc2nnnn2C)ccc(C(F)F)c1C[S+](C)[O-] (centres unmarked) [Example 1-108] | – | 100 | 80 | – | – |
| COc1c(C(=O)Nc2nnnn2C)ccc(C(F)(F)F)c1C[S+](C)[O-] (centres unmarked) [Example 1-135] | 80% | 90 | 90 | – | – |
| CSCc1c(C)ccc(C(=O)Nc2nnnn2C)c1Cl [Example 1-287] | 90% | 100 | 100 | – | – |
| CSCc1c(C(F)F)ccc(C(=O)Nc2nnnn2C)c1Cl [Example 1-320] | – | 100 | 100 | 80 | herbicidal action CYPES (Cyperus esculentus; Dosage 80 g/ha): 80; Herbicidal action against STEME (Stellaria media; comparative experiment, 20 g of a.i./ha): 90; herbicidal activity STEME (Stellaria media): 90%; Herbicidal action against ABUTH (Abutilon theophrasti; [1]): 100 |
| CSCc1c(Cl)ccc(C(=O)Nc2nnnn2C)c1Cl [Example 1-559] | 90% | – | – | – | herbicidal action CYPES (Cyperus esculentus; post-emergence, dosage 80 g/ha): 90%; herbicidal action VIOTR (Viola tricolor; post-emergence, dosage 80 g/ha): 100%; herbicidal action ABUTH (Abutilon theophrasti; post-emergence, dosage 80 g/ha): 90% |
| COc1c(C(=O)Nc2nnnn2C)ccc(Cl)c1CSC [Example 1-570] | 80% | – | – | – | Herbicidal action against CYPES (Cyperus esculentus; post-emergence, 5 g of a.i./ha): 60; Herbicidal action against VIOTR (Viola tricolor; [1]): 60; Herbicidal action against ABUTH (Abutilon theophrasti; post-emergence, dosage 80 g/ha): 90; Herbicidal action against POLCO (Polygonum convolvulus; post-emergence, 5 g of a.i./ha): 30 |
| CCSCc1c(C(F)(F)F)ccc(C(=O)Nc2nnnn2CC)c1C [Example 2-86] | – | – | – | – | herbicidal action CYPES (Cyperus esculentus; post-emergence, dosage 80 g/ha): 80%; herbicidal action VIOTR (Viola tricolor; post-emergence, dosage 80 g/ha): 100%; herbicidal action ABUTH (Abutilon theophrasti; post-emergence, dosage 80 g/ha): 80%; herbicidal action POLCO (Polygonum convolvulus; post-emergence, dosage 80 g/ha): 100% |
| CCn1nnnc1NC(=O)c1ccc(C(F)(F)F)c(CS(=O)(=O)CC)c1C [Example 2-88] | – | 100 | 80 | – | – |
| CCn1nnnc1NC(=O)c1ccc(C(F)F)c(C[S+](C)[O-])c1C (centres unmarked) [Example 2-108] | – | 100 | 100 | – | – |
| CCn1nnnc1NC(=O)c1ccc(C(F)F)c(C[S+](C)[O-])c1SC (centres unmarked) [Example 2-171] | – | 100 | 100 | 90 | herbicidal activity STEME (Stellaria media): 100% |
| CCn1nnnc1NC(=O)c1ccc(S(C)(=O)=O)c(CS(C)(=O)=O)c1Cl [Example 2-280] | 80% | – | – | – | Herbicidal action against VIOTR (Viola tricolor; post-emergence, dosage 80 g/ha): 90 |
| CCn1nnnc1NC(=O)c1ccc(C(F)(F)F)c(CS(=O)(=O)CC)c1Cl [Example 2-301] | 80% | 100 | 80 | 90 | – |
| CCn1nnnc1NC(=O)c1ccc(Cl)c(CSC)c1Cl [Example 2-559] | 90% | 100 | 90 | 80 | – |
| CCCn1nnnc1NC(=O)c1ccc(S(C)(=O)=O)c(CSC)c1C [Example 3-37] | 90% | 100 | 80 | – | – |
| CCCn1nnnc1NC(=O)c1ccc(S(C)(=O)=O)c(CS(C)(=O)=O)c1C [Example 3-39] | – | 100 | 90 | – | – |
| CCCn1nnnc1NC(=O)c1ccc(C(F)(F)F)c(CSCC)c1C [Example 3-86] | – | 100 | 80 | 80 | – |
| CCCn1nnnc1NC(=O)c1ccc(C(F)(F)F)c(C[S+](C)[O-])c1OC (centres unmarked) [Example 3-135] | 100% | 100 | 100 | 100 | – |
| CCCn1nnnc1NC(=O)c1ccc(C(F)(F)F)c(CSC)c1SC [Example 3-161] | 100% | 100 | 100 | 80 | – |
| CCCn1nnnc1NC(=O)c1ccc(C(F)F)c(CSC)c1SC [Example 3-170] | – | 100 | 100 | 90 | herbicidal activity STEME (Stellaria media): 100% |
| CCCn1nnnc1NC(=O)c1ccc(C(F)(F)F)c(CS(=O)(=O)CC)c1Cl [Example 3-301] | 90% | 100 | 80 | 100 | – |
| CCCn1nnnc1NC(=O)c1ccc(C(F)(F)F)c(CSCC(F)(F)F)c1Cl [Example 3-311] | 90% | 90 | 100 | 80 | – |
| CCCn1nnnc1NC(=O)c1ccc(C(F)(F)F)c(CS(C)(=O)=O)c1Br [Example 3-382] | 100% | 90 | 100 | 80 | herbicidal action CYPES (Cyperus esculentus; Dosage 80 g/ha): 80 |
| CCS(=O)(=O)c1c(C(F)(F)F)ccc(C(=O)Nc2nnnn2C)c1Br [Example V-13, 2-bromo-3-(ethylsulfonyl)-N-(1-methyl-1-1H-tetrazol-5-yl)-4-(trifluoromethyl)benzamide, reference compound] | – | – | – | – | Herbicidal action against CYPES (Cyperus esculentus; [2]): 0; Herbicidal action against VIOTR (Viola tricolor; comparative experiment, post-emergence, 20 g of a.i./ha): 0; Herbicidal action against POLCO (Polygonum convolvulus; [2]): 0 |
